Patent US20030153538A1, “Antitumor agent” (The Nisshin OilliO, Ltd., priority 2000, published 2003)
Entries after “also recorded” stand apart in the source; their conditions may differ. Like-named read-outs stand apart in the source and are kept apart here.

Experiments:
[1] = tested on: B-16 melanoma cells; assay: Tests for tumor cell-proliferation-inhibitory effect and tumor cell-extinction (cell growth rate from viable cell count); type: cell-based; settings: for tumor cell-killing effect (in words): at not less than 2 times the concentration required for proliferation inhibition
Method: The tumor cell-proliferation-inhibitory effect and the tumor cell-killing or extinction effect can be determined according to the following method using B-16 melanoma cells.
More specifically, B-16 melanoma cells are inoculated in each well of a 6-well plate in a desired amount, followed by allowing the plate to stand at 37° C. and 5% carbon dioxide concentration to thus cultivate the cells, adding a sample solution to be tested (maslinic acid, erythrodiol, ursolic acid, uvaol, betulinic acid, betulin and physiologically acceptable salts thereof or derivatives thereof) to each well in an amount sufficient for achieving a desired concentration, on the next day or after 5 days from the initiation of the cultivation, determination of viable cell count on the 6th day after the initiation of the cultivation and calculation of the cell growth rate based on the viable cell count to thus evaluate the tumor cell-proliferation-inhibitory effect and the tumor cell-killing effect.
Tests for determining the tumor cell-proliferation-inhibitory effect and the tumor cell-killing effect were conducted according to the following method. To a 6-well plate, a culture medium was dispensed in an amount of 2 mL/well, B-16 melanoma cells were then inoculated in a desired quantity and thereafter the melanoma cells were cultivated by allowing the plate or the culture medium to stand at 37° C. and a carbon dioxide concentration of 5%. On the following day, a test sample solution prepared was added to and admixed with the content of each well to a desired concentration and the cultivation of the melanoma cells was continued. The culture medium was then exchanged on the 5th day from the initiation of the cultivation and the test sample solution was again added to each well. On the next day, the culture medium was removed to recover the cultivated melanoma cells, followed by washing the cells with PBS (phosphate buffered saline), determination of the viable cell count, and then calculation of the cell growth rate according to the following equation 1. The tumor cell-proliferation-inhibitory effect and the tumor cell-killing effect of each test sample were evaluated on the basis of the cell growth rate thus determined.
Cell Growth Rate (%)=(A/B)×100
As comparative examples, oleanolic acid, β-amyrin, α-amyrin and lupeol were added to the culture medium to thus determine and evaluate the cell growth rate by the same method used above.

[2] = tested on: B16 melanoma cells; assay: Test for malignant melanoma metastasis-inhibitory effect (lung metastasis after i.v. injection of B16 melanoma cells); type: in vivo, Whister female rats; settings: rats; for RMI (rate of metastasis-inhibition): every other day, lung lesions on 15th day; for tumor cell-metastasis-inhibitory effect compared with the control group (in words): metastasis of cancer to lung, summary of Table 2
Method: The tumor cell-metastasis-inhibitory effect can be evaluated according to, for instance, the malignant melanoma metastasis-inhibitory test. More specifically, a suspension of B16 melanoma cells prepared in advance is intravenously injected into Whister female rats, cotton seed oil in which each test substance is dissolved in a predetermined concentration is intraperitoneally administered through injection or orally administered using a sonde, every second day starting from 2nd day after the intravenous injection of the suspension. In this connection, only cotton seed oil is administered to the control group of animals. The lungs are extracted from these animals on the 15th day after the injection of the B16 melanoma cells, the lungs are examined to determine the number of cancer lesions thus metastasized to thus calculate the rate of metastasis-inhibition. The tumor cell-metastasis-inhibitory effect of each test sample is evaluated on the basis of the resulting rate of metastasis-inhibition.
Tests for evaluating the malignant melanoma metastasis-inhibitory effect of each test sample were conducted according to the following method. Whister female rats (6-week-old; average body weight: 160 g) were preliminarily bred with a powdery feed preparation having a composition of AIN-93 for one week, these animals were divided into 5 groups (8 animals per group) so as to equalize the average body weight and then a previously prepared suspension of B16 melanoma cells was intravenously injected into each rat. Subsequently, these animals were bred with a powdery feed preparation having a composition of AIN-93 and cotton seed oil in which each of maslinic acid, erythrodiol, ursolic acid, uvaol, betulinic acid, betulin, compounds of Synthetic Examples 1 and 2, or oleanolic acid had been dissolved in a predetermined concentration was intraperitoneally injected into each animal or orally administered thereto using a sonde, every other day starting from the 2nd day after the injection of the B 16 melanoma cells. In this connection, only cotton seed oil was administered to the control group. On the 15th day after the injection of the B 16 melanoma cells, the lung of each animal was taken out, the lungs were examined to determine the number of cancer lesions thus metastasized and to thus calculate the rate of metastasis-inhibition in accordance with the following equation 2. The tumor cell-metastasis-inhibitory effect of each test sample could be evaluated on the basis of the resulting rate of metastasis-inhibition.
Rate of Metastasis-Inhibition (%)=[(D−C)/D]×100
Wherein C: Average number of cancer lesions metastasized observed in each animal group; and D: average number of cancer lesions metastasized observed in the control group.
Maslinic acid, erythrodiol, ursolic acid, uvaol, betulinic acid, betulin and physiologically acceptable salts thereof or derivatives thereof as well as cotton seed oil as the control were inspected for the rate of metastasis-inhibition (RMI) using the dose and administration methods specified in the following Table 2. In addition, the same procedures used above were repeated except for using oleanolic acid as a comparative sample to thus evaluate the rate of metastasis-inhibition (RMI) thereof.

[3] = 5 ppm, viable cell count vs control on 6th day
[4] = 10 ppm, viable cell count vs control on 6th day
[5] = 15 ppm, viable cell count vs control on 6th day
[6] = 20 ppm, viable cell count vs control on 6th day
[7] = 25 ppm, viable cell count vs control on 6th day
[8] = 100 mg/body wt. (kg), Oral Adm.
[9] = Mus musculus, B16, 144 h, 5 ppm, viable cell count vs control on 6th day, read-out: Cell Growth Rate
[10] = Mus musculus, B16, 144 h, 15 ppm, viable cell count vs control on 6th day, read-out: Cell Growth Rate
[11] = Mus musculus, B16, 144 h, 25 ppm, viable cell count vs control on 6th day, read-out: Cell Growth Rate
[12] = Mus musculus, B16, 144 h, viable cell count vs control on 6th day
[13] = Mus musculus, B16, 144 h, 20 ppm, viable cell count vs control on 6th day, read-out: Cell Growth Rate

CCOC(=O)[C@]12CCC(C)(C)C[C@H]1C1=CC[C@@H]3[C@@]4(C)C[C@@H](O)[C@H](O)C(C)(C)[C@@H]4CC[C@@]3(C)[C@]1(C)CC2 [Comp. Of Synthetic Ex. 1, maslinic acid ethyl ester]
Cell Growth Rate [1, 3]: 73% | Cell Growth Rate [1, 4]: 49% | Cell Growth Rate [1, 5]: 18% | Cell Growth Rate [1, 6]: 0% | Cell Growth Rate [1, 7]: 0% | RMI (rate of metastasis-inhibition) [2, 8]: 77.6%

CC(=O)O[C@@H]1C[C@]2(C)[C@H]3CC=C4[C@@H]5CC(C)(C)CC[C@]5(C(=O)O)CC[C@@]4(C)[C@]3(C)CC[C@H]2C(C)(C)[C@H]1OC(C)=O [Comp. Of Synthetic Ex. 2, 2,3-O-di-acetyl-maslinic acid]
Cell Growth Rate [1, 3]: 89% | Cell Growth Rate [1, 4]: 63% | Cell Growth Rate [1, 5]: 34% | Cell Growth Rate [1, 6]: 4% | Cell Growth Rate [1, 7]: 0% | RMI (rate of metastasis-inhibition) [2, 8]: 74.8%

CC1(C)CC[C@]2(CO)CC[C@]3(C)C(=CC[C@@H]4[C@@]5(C)CC[C@H](O)C(C)(C)[C@@H]5CC[C@]43C)[C@@H]2C1 [Erythrodiol]
activity at 5 ppm [1, 9]: 73% | activity at 15 ppm [1, 10]: 69% | activity at 25 ppm [1, 11]: 53% | activity at 50 ppm [1, 12]: 43% | tumor cell-proliferation-inhibitory effect (in words) ([1]; summary of Table 1): quite strong tumor cell-proliferation-inhibitory effects | RMI (rate of metastasis-inhibition) [2, 8]: 56.3% | tumor cell-metastasis-inhibitory effect compared with the control group (in words) [2]: significantly (P<0.05) inhibit any metastasis of cancer to lung

CC1(C)CC[C@]2(C(=O)O)CC[C@]3(C)C(=CC[C@@H]4[C@@]5(C)CC[C@H](O)C(C)(C)[C@@H]5CC[C@]43C)[C@@H]2C1 [Oleanolic acid, oleanolic acid, reference compound]
activity at 15 ppm [1, 10]: 100% | activity at 20 ppm [1, 13]: 100% | activity at 25 ppm [1, 11]: 100% | activity at 30 ppm ([1]; Mus musculus, B16, 144 h, 30 ppm, viable cell count vs control on 6th day): 100% | activity at 40 ppm ([1]; Mus musculus, B16, 144 h, 40 ppm, viable cell count vs control on 6th day): 100% | activity at 50 ppm [1, 12]: 94% | tumor cell-killing effect (in words) [1]: not observed | tumor cell-proliferation-inhibitory effect (in words) ([1]; summary of Table 1): cannot inhibit the proliferation of the B-16 melanoma cells at all | tumor cell-proliferation-inhibitory effect (in words) ([1]; summary of Table 1, listed as oleanolic acid): quite weak tumor cell-proliferation-inhibitory effect only at a higher concentration | RMI (rate of metastasis-inhibition) ([2]; 300 mg/body wt. (kg), Oral Adm.): 9.2% | tumor cell-metastasis-inhibitory effect compared with the control group (in words) [2]: does not possess any tumor cell-metastasis-inhibitory effect; also recorded: Any significant effect was not observed

CC1(C)CC[C@]2(C(=O)O)CC[C@]3(C)C(=CC[C@@H]4[C@@]5(C)C[C@@H](O)[C@H](O)C(C)(C)[C@@H]5CC[C@]43C)[C@@H]2C1 [Purified maslinic acid 1, maslinic acid]
Cell Growth Rate [1, 3]: 67% | Cell Growth Rate [1, 4]: 43% | Cell Growth Rate [1, 5]: 6% | Cell Growth Rate [1, 6]: 0% | Cell Growth Rate [1, 7]: 0% | RMI (rate of metastasis-inhibition) ([2]; 50 mg/body wt. (kg), Oral Adm.): 61.4%

CC1(C)CC[C@]2(C(=O)O)CC[C@]3(C)C(=CC[C@@H]4[C@@]5(C)C[C@@H](O)[C@H](O)C(C)(C)[C@@H]5CC[C@]43C)[C@@H]2C1 [Purified maslinic acid 2, maslinic acid]
activity at 5 ppm ([1]; Mus musculus, B16, 144 h, read-out: Cell Growth Rate, 5 ppm, viable cell count vs control on 6th day): 75% | activity at 10 ppm ([1]; Mus musculus, B16, 144 h, read-out: Cell Growth Rate, 10 ppm, viable cell count vs control on 6th day): 47% | activity at 15 ppm ([1]; Mus musculus, B16, 144 h, read-out: Cell Growth Rate, 15 ppm, viable cell count vs control on 6th day): 11% | activity at 20 ppm ([1]; Mus musculus, B16, 144 h, read-out: Cell Growth Rate, 20 ppm, viable cell count vs control on 6th day): 0% | activity at 25 ppm ([1]; Mus musculus, B16, 144 h, read-out: Cell Growth Rate, 25 ppm, viable cell count vs control on 6th day): 0% | RMI (rate of metastasis-inhibition) ([2]; 50 mg/body wt. (kg), I.P. Adm.): 67.3% | RMI (rate of metastasis-inhibition) [2, 8]: 78.6%

C[C@H]1[C@H](C)CC[C@]2(C(=O)O)CC[C@]3(C)C(=CC[C@@H]4[C@@]5(C)CC[C@H](O)C(C)(C)[C@@H]5CC[C@]43C)[C@H]12 [Ursolic acid]
activity at 5 ppm [1, 9]: 64% | activity at 10 ppm ([1]; Mus musculus, B16, 144 h, 10 ppm, viable cell count vs control on 6th day, read-out: Cell Growth Rate): 40% | activity at 15 ppm [1, 10]: 3% | activity at 20 ppm [1, 13]: 0% | activity at 25 ppm [1, 11]: 0% | activity at 50 ppm [1, 12]: 0% | tumor cell-killing effect (in words) [1]: quite intensive tumor cell-killing effects | tumor cell-proliferation-inhibitory effect (in words) ([1]; summary of Table 1): quite strong tumor cell-proliferation-inhibitory effects | RMI (rate of metastasis-inhibition) [2, 8]: 79.5% | tumor cell-metastasis-inhibitory effect compared with the control group (in words) [2]: significantly (P<0.05) inhibit any metastasis of cancer to lung

C[C@H]1[C@H](C)CC[C@]2(CO)CC[C@]3(C)C(=CC[C@@H]4[C@@]5(C)CC[C@H](O)C(C)(C)[C@@H]5CC[C@]43C)[C@H]12 [Uvaol]
activity at 5 ppm [1, 9]: 80% | activity at 15 ppm [1, 10]: 69% | activity at 25 ppm [1, 11]: 49% | activity at 50 ppm [1, 12]: 30% | tumor cell-proliferation-inhibitory effect (in words) ([1]; summary of Table 1): quite strong tumor cell-proliferation-inhibitory effects | RMI (rate of metastasis-inhibition) [2, 8]: 43.7% | tumor cell-metastasis-inhibitory effect compared with the control group (in words) [2]: significantly (P<0.05) inhibit any metastasis of cancer to lung
